# Test results published in patent US12084472B2 (Ardelyx, Inc., priority 2015, dated 2024).
# Molecular target: T1, human TGR5 (Homo sapiens, UniProt Q8TDU6)
# T1 construct: expressed in transfected cells; host or cells: HEK293
# T1 sequence (Q8TDU6 1-330): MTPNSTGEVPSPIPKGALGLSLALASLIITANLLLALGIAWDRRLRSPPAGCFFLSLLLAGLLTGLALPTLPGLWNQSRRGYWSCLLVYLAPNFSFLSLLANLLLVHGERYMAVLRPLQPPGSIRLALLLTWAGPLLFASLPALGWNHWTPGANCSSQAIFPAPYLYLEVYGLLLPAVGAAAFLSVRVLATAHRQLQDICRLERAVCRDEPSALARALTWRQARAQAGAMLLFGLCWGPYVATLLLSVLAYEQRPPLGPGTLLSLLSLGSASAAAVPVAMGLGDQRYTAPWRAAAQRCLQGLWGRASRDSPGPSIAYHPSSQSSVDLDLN
# Test: Cell-based TGR5 assay (cAMP generation, HTRF)
# Conditions: HEK293 cells stably transfected with human TGR5; cAMP by HTRF; 30 minutes at 37° C.; read-out: pEC50 Human TGR5 (converted)
# Outline: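 First, compounds in 3-fold serial dilution were placed in HBSS with 10 mM HEPES pH 7.4 and 0.5 mM IBMX. Next, human TGR5-expressing HEK293 cells were added and incubated 30 min at 37° C. Finally, cAMP was detected by HTRF and pEC50 derived by logistic fitting.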
row,EC50,SMILES
1,1260 to 10000 nM,"CN(CC(=O)O)CC(=O)N(CCCCc1cc(Cl)c(CNC2(c3cnccc3-c3ccccc3OC3CC3)CC2)cc1Cl)C[C@H](O)[C@@H](O)[C@H](O)[C@H](O)CO [Compound I-200, 2-({[(4-{2,5-dichloro-4-[({1-[4-(2-cyclopropoxyphenyl)pyridin-3-yl]cyclopropyl}amino)methyl]phenyl}butyl)[(2S,3R,4R,5R)-2,3,4,5,6-pentahydroxyhexyl]carbamoyl]methyl}(methyl)amino) acetic acid]"
2,< 100 nM,"CN(C[C@H](O)[C@@H](O)[C@H](O)[C@H](O)CO)C(=O)NCCCCCc1cc(Cl)c(CNC2(c3cnccc3-c3ccccc3OC3CC3)CC2)cc1Cl (stereo in doubt) [Compound I-163, 1-(5-{2,5-dichloro-4-[({1-[4-(2-cyclopropoxyphenyl)pyridin-3-yl]cyclopropyl}amino)methyl]phenyl}pentyl)-3-methyl-3-[(2S,3R,4R,5R)-2,3,4,5,6-pentahydroxyhexyl]urea]"
3,< 100 nM,"O=C([C@@H](O)[C@@H](O)[C@H](O)[C@@H](O)CO)N(CCCCSc1ccc(Cl)c(CNC2(c3cnccc3-c3ccccc3OC3CC3)CC2)c1)C1CCS(=O)(=O)CC1 [Compound I-581, (2S,3S,4R,5S)-N-[4-({4-chloro-3-[({1-[4-(2-cyclopropoxyphenyl)pyridin-3-yl]cyclopropyl}amino)methyl]phenyl}sulfanyl)butyl]-N-(1,1-dioxo-1λ^6-thian-4-yl)-2,3,4,5,6-pentahydroxyhexanamide]"
4,< 100 nM,"O=C(NC[C@H](O)[C@@H](O)[C@H](O)[C@H](O)CO)[C@H]1CC[C@H](CNS(=O)(=O)c2ccc(Cl)c(COC3(c4cnccc4-c4ccccc4OC4CC4)CC3)c2)CC1 [Compound I-436, (1r,4r)-4-[4-chloro-3-({1-[4-(2-cyclopropoxyphenyl)pyridin-3-yl]cyclopropoxy}methyl)benzenesulfonamidomethyl]-N-[(2S,3R,4R,5R)-2,3,4,5,6-pentahydroxyhexyl]cyclohexane-1-carboxamide]"
5,126 to 1000 nM,"O=C(NCCCN1CCN(S(=O)(=O)c2ccc(Cl)c(COC3(c4cnccc4-c4ccccc4OC4CC4)CC3)c2)CC1)NC[C@H](O)[C@@H](O)[C@H](O)[C@H](O)CO [Compound I-423, 1-(3-{4-[4-chloro-3-({1-[4-(2-cyclopropoxyphenyl)pyridin-3-yl]cyclopropoxy}methyl)benzenesulfonyl]piperazin-1-yl}propyl)-3-[(2S,3R,4R,5R)-2,3,4,5,6-pentahydroxyhexyl]urea]"
6,< 100 nM,"CN(CCSc1ccc(Cl)c(COC2(c3cnccc3-c3ccccc3OC3CC3)CC2)c1)C(=O)[C@@H](O)[C@@H](O)[C@H](O)[C@@H](O)CO [Compound I-555, (2S,3S,4R,5S)-N-(2-{[4-chloro-3-({1-[4-(2-cyclopropoxyphenyl)pyridin-3-yl]cyclopropoxy}methyl)phenyl]sulfanyl}ethyl)-2,3,4,5,6-pentahydroxy-N-methylhexanamide]"
7,126 to 1000 nM,"O=C([C@@H](O)[C@@H](O)[C@H](O)[C@@H](O)CO)N(CCCSc1ccc(Cl)c(COC2(c3cnccc3-c3ccccc3OC3CC3)CC2)c1)C1CCS(=O)(=O)CC1 [Compound I-556, (2S,3S,4R,5S)-N-(3-{[4-chloro-3-({-[4-(2-cyclopropoxyphenyl)pyridin-3-yl]cyclopropoxy}methyl)phenyl]sulfanyl}propyl)-N-(1,1-dioxo-1λ^6-thian-4-yl)-2,3,4,5,6-pentahydroxyhexanamide]"
8,< 100 nM,"CN(CCO[C@@H]1O[C@H](CO)[C@@H](O)[C@H](O)[C@H]1O)C(=O)CCCCc1cc(Cl)c(COC2(c3cnccc3-c3ccccc3OC3CC3)CC2)cc1Cl [Compound I-121, 5-(2,5-dichloro-4-((1-(4-(2-cyclopropoxyphenyl)pyridin-3-yl)cyclopropoxy)methyl)phenyl)-N-methyl-N-(2-(((2R,3R,4S,5S,6R)-3,4,5-trihydroxy-6-(hydroxymethyl)tetrahydro-2H-pyran-2-yl)oxy)ethyl)pentanamide]"
9,< 100 nM,"CS(=O)(=O)CCN(CCCCCc1cc(Cl)c(COC2(c3cnccc3-c3ccccc3OC3CC3)CC2)cc1Cl)C(=O)[C@@H](O)[C@@H](O)[C@H](O)[C@@H](O)CO (stereo in doubt) [Compound I-226, (2S,3S,4R,5S)-N-{5-[2,5-dichloro-4-({1-[4-(2-cyclopropoxyphenyl)pyridin-3-yl]cyclopropoxy}methyl)phenyl]pentyl}-2,3,4,5,6-pentahydroxy-N-(2-methanesulfonylethyl)hexanamide]"
10,126 to 1000 nM,"O=C(CCCCc1cc(Cl)c(COC2(c3cnccc3-c3ccccc3OC3CC3)CC2)cc1Cl)N(Cc1ccccc1)C[C@H](O)[C@@H](O)[C@H](O)[C@H](O)CO [Compound I-126, N-benzyl-5-(2,5-dichloro-4((1-(4-(2-cyclopropoxyphenyl)pyridin-3-yl)cyclopropoxy)methyl)phenyl)-N-((2S,3R,4R,5R)-2,3,4,5,6-pentahydroxyhexyl)pentanamide]"
11,< 100 nM,"O=C(NCC1CCN(S(=O)(=O)c2ccc(Cl)c(COC3(c4cnccc4-c4ccccc4OC4CC4)CC3)c2)CC1)NC[C@H](O)[C@@H](O)[C@H](O)[C@H](O)CO [Compound I-424, 1-({1-[4-chloro-3-({1-[4-(2-cyclopropoxyphenyl)pyridin-3-yl]cyclopropoxy}methyl)benzenesulfonyl]piperidin-4-yl}methyl)-3-[(2S,3R,4R,5R)-2,3,4,5,6-pentahydroxyhexyl]urea]"
12,< 100 nM,"O=C(/C=C/CC1CN(S(=O)(=O)c2ccc(Cl)c(COC3(c4cnccc4-c4ccccc4OC4CC4)CC3)c2)C1)NC[C@H](O)[C@@H](O)[C@H](O)[C@H](O)CO [Compound I-452, (2E)-4-{1-[4-chloro-3-({1-[4-(2-cyclopropoxyphenyl)pyridin-3-yl]cyclopropoxy}methyl)benzenesulfonyl]azetidin-3-yl}-N-[(2S,3R,4R,5R)-2,3,4,5,6-pentahydroxyhexyl]but-2-enamide]"
13,< 100 nM,"CC(=O)N(CCCCSc1ccc(Cl)c(COC2(c3cnccc3-c3ccccc3OC3CC3)CC2)c1)C[C@H](O)[C@@H](O)[C@H](O)[C@H](O)CO [Compound I-501, N-(4-{[4-chloro-3-({1-[4-(2-cyclopropoxyphenyl)pyridin-3-yl]cyclopropoxy}methyl)phenyl]sulfanyl}butyl)-N-[(2S,3R,4R,5R)-2,3,4,5,6-pentahydroxyhexyl]acetamide]"
14,< 100 nM,"COCCCN(CCCC(C)c1ccc(C)c(CNC2(c3cnccc3-c3ccccc3OC3CC3)CC2)c1)C(=O)[C@@H](O)[C@@H](O)[C@H](O)[C@@H](O)CO (stereo partly drawn) [Compound I-303, (2S,3S,4R,5S)-N-(4-{3-[({1-[4-(2-cyclopropoxyphenyl)pyridin-3-yl]cyclopropyl}amino)methyl]-4-methylphenyl}pentyl)-2,3,4,5,6-pentahydroxy-N-(3-methoxypropyl)hexanamide]"
15,< 100 nM,"O=C(CCCSc1ccc(Cl)c(COC2(c3cnccc3-c3ccccc3OC3CC3)CC2)c1)NC[C@H](O)[C@@H](O)[C@H](O)[C@H](O)CO [Compound I-498, 4-[[4-Chloro-3-([1-[4-(2-cyclopropoxyphenyl)pyridin-3-yl]cyclopropoxy]methyl)phenyl]sulfanyl]-N-[(2S,3R,4R,5R)-2,3,4,5,6-pentahydroxyhexyl]butanamide]"
16,< 100 nM,"CN(CCCCNC(=O)N[C@@H](CO)[C@@H](O)[C@@H](O)[C@H](O)CO)S(=O)(=O)c1ccc(Cl)c(COC2(c3cnccc3-c3ccccc3OC3CC3)CC2)c1 [Compound I-776, 4-chloro-3-((1-(4-(2-cyclopropoxyphenyl)pyridin-3-yl)cyclopropoxy)methyl)-N-methyl-N-(4-(3-((2S,3R,4R,5R)-1,3,4,5,6-pentahydroxyhexan-2-yl)ureido)butyl)benzenesulfonamide]"
17,< 100 nM,"[2H]C([2H])(NC(=O)N[C@@H](CO)[C@@H](O)[C@H](O)[C@H](O)CO)C([2H])([2H])C([2H])([2H])C([2H])([2H])N(C)S(=O)(=O)c1ccc(Cl)c(COC2(c3cnccc3-c3ccccc3OC3CC3)CC2)c1 [Compound I-735, 1-(4-[N-methyl[4-chloro-3-([1-[4-(2-cyclopropoxyphenyl)pyridin-3-yl]cyclopropoxy]methyl)benzene]sulfonamido](d8)butyl)-3-[(2S,3R,4S,5R)-1,3,4,5,6-pentahydroxyhexan-2-yl]urea]"
18,< 100 nM,"Cc1ccc(C(C)CCCC(=O)N(Cc2ccccc2)C[C@H](O)[C@@H](O)[C@H](O)[C@H](O)CO)cc1CNC1(c2cnccc2-c2ccccc2OC2CC2)CC1 (stereo partly drawn) [Compound I-259, N-benzyl-5-(3-(((1-(4-(2-cyclopropoxyphenyl)pyridin-3-yl)cyclopropyl)amino)methyl)-4-methylphenyl)-N-((2S,3R,4R,5R)-2,3,4,5,6-pentahydroxyhexyl) hexanamide]"
19,126 to 1000 nM,"CC(CCCC(=O)N(CCC(N)=O)C[C@H](O)[C@@H](O)[C@H](O)[C@H](O)CO)c1ccc(Cl)c(CNC2(c3cnccc3-c3ccccc3OC3CC3)CC2)c1 (stereo partly drawn) [Compound I-335, N-(2-carbamoylethyl)-5-{4-chloro-3-[({1-[4-(2-cyclopropoxyphenyl)pyridin-3-yl]cyclopropyl}amino)methyl]phenyl}-N-[(2S,3R,4R,5R)-2,3,4,5,6-pentahydroxyhexyl]hexanamide]"
20,126 to 1000 nM,"CSc1ccccc1-c1ccncc1C1(NCc2cc(Cl)ccc2Cl)CC1 [Compound I-7, N-[(2,5-dichlorophenyl)methyl]-1-{4-[2-(methylsulfanyl)phenyl]pyridin-3-yl}cyclopropan-1-amine]"
